Measurements reported in patent publication US20230085307A1, “PYRIDAZINONE COMPOUND AND HERBICIDE” (NISSAN CHEMICAL CORPORATION, priority 2019, published 2023).

Legend:
blackgrass [1] = assay: Test Example 5: herbicidal effect by foliage application, plastic box (Table 20, symbol J); assay type: in vivo, blackgrass (Alopecurus myosuroides); settings: foliage application, 320 g/ha, evaluated three weeks after application
Summary of the method: (§1)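 Sow seeds spot-wise in sterilized diluvial soil; cover with ~1.5 cm soil. Grow 14 days in greenhouse, 25° C. to 30° C. Spray foliage with emulsion diluted to predetermined amount. Rate effect after 3 weeks.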

blackgrass [2] = assay: Test Example 4: herbicidal effect by soil treatment (Table 19, symbol J); assay type: in vivo, blackgrass (Alopecurus myosuroides); settings: amount of applied herbicide 320 g/ha
Summary of the method: (§2)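 Soil-surface application: an emulsion agent diluted with water to the predetermined dose is sprayed uniformly over seeds lying under roughly 1.5 cm of sterilized diluvial soil. Boxes stay in a greenhouse at 25° C. to 30° C. Three weeks later, each species is graded on previously defined criteria.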

lambsquarters [3] = assay: Test Example 5: herbicidal effect by foliage application, plastic box (Table 20, symbol O); assay type: in vivo, lambsquarters (Chenopodium album); settings: foliage application, 320 g/ha, evaluated three weeks after application
Summary of the method: as §1

velvetleaf [4] = assay: Test Example 4: herbicidal effect by soil treatment (Table 19, symbol M); assay type: in vivo, velvetleaf (Abutilon theophrasti); settings: amount of applied herbicide 320 g/ha
Summary of the method: as §2

redroot pigweed [5] = assay: Test Example 4: herbicidal effect by soil treatment (Table 19, symbol N); assay type: in vivo, redroot pigweed (Amaranthus retroflexus); settings: amount of applied herbicide 320 g/ha
Summary of the method: as §2

Italian ryegrass [6] = assay: Test Example 5: herbicidal effect by foliage application, plastic box (Table 20, symbol K); assay type: in vivo, Italian ryegrass (Lolium multiflorum); settings: foliage application, 320 g/ha, evaluated three weeks after application
Summary of the method: as §1

windgrass [7] = assay: Test Example 5: herbicidal effect by foliage application, plastic box (Table 20, symbol L); assay type: in vivo, windgrass (Apera spica-venti); settings: foliage application, 320 g/ha, evaluated three weeks after application
Summary of the method: as §1

southern crabgrass [8] = assay: Test Example 5: herbicidal effect by foliage application, plastic box (Table 20, symbol F); assay type: in vivo, southern crabgrass (Digitaria ciliaris); settings: foliage application, 320 g/ha, evaluated three weeks after application
Summary of the method: as §1

lambsquarters [9] = assay: Test Example 4: herbicidal effect by soil treatment (Table 19, symbol O); assay type: in vivo, lambsquarters (Chenopodium album); settings: amount of applied herbicide 320 g/ha
Summary of the method: as §2

persian speedwell [10] = assay: Test Example 4: herbicidal effect by soil treatment (Table 19, symbol R); assay type: in vivo, Persian speedwell (Veronica persica); settings: amount of applied herbicide 320 g/ha
Summary of the method: as §2

southern crabgrass [11] = assay: Test Example 4: herbicidal effect by soil treatment (Table 19, symbol F); assay type: in vivo, southern crabgrass (Digitaria ciliaris); settings: amount of applied herbicide 320 g/ha
Summary of the method: as §2

windgrass [12] = assay: Test Example 4: herbicidal effect by soil treatment (Table 19, symbol L); assay type: in vivo, windgrass (Apera spica-venti); settings: amount of applied herbicide 320 g/ha
Summary of the method: as §2

wild oat [13] = assay: Test Example 5: herbicidal effect by foliage application, plastic box (Table 20, symbol I); assay type: in vivo, wild oat (Avena fatua); settings: foliage application, 320 g/ha, evaluated three weeks after application
Summary of the method: as §1

Japanese bulrush = assay: Test Example 1: herbicidal activity, application before weed generation under submerged conditions (Table 16, symbol B); assay type: in vivo, Japanese bulrush (Schoenoplectus juncoides); settings: 320 g/ha applied herbicide
Summary of the method: (§3)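 Alluvial soil was flooded to 4 cm depth, weed seeds were sown mixed and 2.5-leaf rice seedlings were transplanted. On sowing day, the compound's emulsion, diluted in water to a set dose, was applied to the water surface. Plants grew at 25–30 °C and were scored 0–5 after three weeks.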

barnyard grass [14] = assay: Test Example 4: herbicidal effect by soil treatment (Table 19, symbol H); assay type: in vivo, barnyard grass (Echinochloa crus-galli); settings: amount of applied herbicide 320 g/ha
Summary of the method: as §2

green foxtail [15] = assay: Test Example 4: herbicidal effect by soil treatment (Table 19, symbol G); assay type: in vivo, green foxtail (Setaria viridis); settings: amount of applied herbicide 320 g/ha
Summary of the method: as §2

velvetleaf [16] = assay: Test Example 5: herbicidal effect by foliage application, plastic box (Table 20, symbol M); assay type: in vivo, velvetleaf (Abutilon theophrasti); settings: foliage application, 320 g/ha, evaluated three weeks after application
Summary of the method: as §1

wild oat [17] = assay: Test Example 4: herbicidal effect by soil treatment (Table 19, symbol I); assay type: in vivo, wild oat (Avena fatua); settings: amount of applied herbicide 320 g/ha
Summary of the method: as §2

barnyard grass [18] = assay: Test Example 5: herbicidal effect by foliage application, plastic box (Table 20, symbol H); assay type: in vivo, barnyard grass (Echinochloa crus-galli); settings: foliage application, 320 g/ha, evaluated three weeks after application
Summary of the method: as §1

Italian ryegrass [19] = assay: Test Example 4: herbicidal effect by soil treatment (Table 19, symbol K); assay type: in vivo, Italian ryegrass (Lolium multiflorum); settings: amount of applied herbicide 320 g/ha
Summary of the method: as §2

Chinese sprangletop = assay: Test Example 3: herbicidal effect by foliage application, Wagner pot (Table 18, symbol D); assay type: in vivo, chinese sprangletop (Leptochloa chinensis); settings: amount of applied herbicide 320 g/ha
Summary of the method: (§4)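 Plants were sown in alluvial soil held under 0.1–0.5 cm standing water and grown 14 days in a greenhouse at 25–30 °C. An emulsifiable formulation, water-diluted to the set dose, was then sprayed onto the foliage, and effects were scored three weeks later using previously defined criteria.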

rice flat sedge = assay: Test Example 3: herbicidal effect by foliage application, Wagner pot (Table 18, symbol E); assay type: in vivo, rice flat sedge (Cyperus iria); settings: amount of applied herbicide 320 g/ha
Summary of the method: as §4

barnyard grass [20] = assay: Test Example 3: herbicidal effect by foliage application, Wagner pot (Table 18, symbol H); assay type: in vivo, barnyard grass (Echinochloa crus-galli); settings: amount of applied herbicide 320 g/ha
Summary of the method: as §4

chickweed [21] = assay: Test Example 4: herbicidal effect by soil treatment (Table 19, symbol P); assay type: in vivo, common chickweed (Stellaria media); settings: amount of applied herbicide 320 g/ha
Summary of the method: as §2

persian speedwell [22] = assay: Test Example 5: herbicidal effect by foliage application, plastic box (Table 20, symbol R); assay type: in vivo, Persian speedwell (Veronica persica); settings: foliage application, 320 g/ha, evaluated three weeks after application
Summary of the method: as §1

oval-leafed pondweed = assay: Test Example 1: herbicidal activity, application before weed generation under submerged conditions (Table 16, symbol C); assay type: in vivo, oval-leafed pondweed (Monochoria vaginalis); settings: 320 g/ha applied herbicide
Summary of the method: as §3

late watergrass = assay: Test Example 1: herbicidal activity, application before weed generation under submerged conditions (Table 16, symbol A); assay type: in vivo, late watergrass (Echinochloa oryzicola); settings: 320 g/ha applied herbicide
Summary of the method: as §3

chickweed [23] = assay: Test Example 5: herbicidal effect by foliage application, plastic box (Table 20, symbol P); assay type: in vivo, common chickweed (Stellaria media); settings: foliage application, 320 g/ha, evaluated three weeks after application
Summary of the method: as §1

green foxtail [24] = assay: Test Example 5: herbicidal effect by foliage application, plastic box (Table 20, symbol G); assay type: in vivo, green foxtail (Setaria viridis); settings: foliage application, 320 g/ha, evaluated three weeks after application
Summary of the method: as §1

redroot pigweed [25] = assay: Test Example 5: herbicidal effect by foliage application, plastic box (Table 20, symbol N); assay type: in vivo, redroot pigweed (Amaranthus retroflexus); settings: foliage application, 320 g/ha, evaluated three weeks after application
Summary of the method: as §1

CCCC(=O)Oc1c(C)nn(C)c(=O)c1-c1c(-c2cccc(C(F)(F)F)c2)sc2ccc(F)cc12 [2-232]
herbicidal effect on J: blackgrass (criteria 0-5) (blackgrass [1]): 0 (Herbicidal rate of 5% or less (almost no effect)) | herbicidal effect on J: blackgrass (blackgrass [2]): 0 (Herbicidal rate of 5% or less (almost no effect)) | herbicidal effect on O: lambsquarters (criteria 0-5) (lambsquarters [3]): 3 (Herbicidal rate of 40% or more and less than 70%) | herbicidal effect on M: velvetleaf (velvetleaf [4]): 0 (Herbicidal rate of 5% or less (almost no effect)) | herbicidal effect on N: redroot pigweed (redroot pigweed [5]): 0 (Herbicidal rate of 5% or less (almost no effect)) | herbicidal effect on K: Italian ryegrass (criteria 0-5) (Italian ryegrass [6]): 0 (Herbicidal rate of 5% or less (almost no effect)) | herbicidal effect on L: windgrass (criteria 0-5) (windgrass [7]): 1 (Herbicidal rate of 5% or more and less than 20%) | herbicidal effect on F: southern crabgrass (criteria 0-5) (southern crabgrass [8]): 0 (Herbicidal rate of 5% or less (almost no effect)) | herbicidal effect on O: lambsquarters (lambsquarters [9]): 0 (Herbicidal rate of 5% or less (almost no effect)) | herbicidal effect on R: persian speedwell (persian speedwell [10]): 3 (Herbicidal rate of 40% or more and less than 70%) | herbicidal effect on F: southern crabgrass (southern crabgrass [11]): 0 (Herbicidal rate of 5% or less (almost no effect)) | herbicidal effect on L: windgrass (windgrass [12]): 0 (Herbicidal rate of 5% or less (almost no effect)) | herbicidal effect on I: wild oat (criteria 0-5) (wild oat [13]): 0 (Herbicidal rate of 5% or less (almost no effect)) | Herbicidal effect on B: Japanese bulrush (grade 0-5) (Japanese bulrush): 0 (Herbicidal rate of 5% or less (almost no effect)) | herbicidal effect on H: barnyard grass (barnyard grass [14]): 0 (Herbicidal rate of 5% or less (almost no effect)) | herbicidal effect on G: green foxtail (green foxtail [15]): 0 (Herbicidal rate of 5% or less (almost no effect)) | herbicidal effect on M: velvetleaf (criteria 0-5) (velvetleaf [16]): 5 (Herbicidal rate of 90% or more (almost completely withered)) | herbicidal effect on I: wild oat (wild oat [17]): 0 (Herbicidal rate of 5% or less (almost no effect)) | herbicidal effect on H: barnyard grass (criteria 0-5) (barnyard grass [18]): 0 (Herbicidal rate of 5% or less (almost no effect)) | herbicidal effect on K: Italian ryegrass (Italian ryegrass [19]): 0 (Herbicidal rate of 5% or less (almost no effect)) | herbicidal effect on D: Chinese sprangletop (Chinese sprangletop): 5 (Herbicidal rate of 90% or more (almost completely withered)) | herbicidal effect on E: rice flat sedge (rice flat sedge): 5 (Herbicidal rate of 90% or more (almost completely withered)) | herbicidal effect on H: barnyard grass (barnyard grass [20]): 4 (Herbicidal rate of 70% or more and less than 90%) | herbicidal effect on P: chickweed (chickweed [21]): 3 (Herbicidal rate of 40% or more and less than 70%) | herbicidal effect on R: persian speedwell (criteria 0-5) (persian speedwell [22]): 5 (Herbicidal rate of 90% or more (almost completely withered)) | Herbicidal effect on C: oval-leafed pondweed (grade 0-5) (oval-leafed pondweed): 0 (Herbicidal rate of 5% or less (almost no effect)) | Herbicidal effect on A: late watergrass (grade 0-5) (late watergrass): 3 (Herbicidal rate of 40% or more and less than 70%) | herbicidal effect on P: chickweed (criteria 0-5) (chickweed [23]): 5 (Herbicidal rate of 90% or more (almost completely withered)) | herbicidal effect on G: green foxtail (criteria 0-5) (green foxtail [24]): 0 (Herbicidal rate of 5% or less (almost no effect)) | herbicidal effect on N: redroot pigweed (criteria 0-5) (redroot pigweed [25]): 5 (Herbicidal rate of 90% or more (almost completely withered))
